We go through one compound from article PMC7738871, “Covalent modification of Keap1 at Cys77 and Cys434 by pubescenoside a suppresses oxidative stress-induced NLRP3 inflammasome activation in myocardial ischemia-reperfusion injury” (Theranostics, 2021).

Data set [1] deals with Nrf2. The data set is described as follows: Nrf2 nuclear translocation. The following applies: PBA for 6 h. The data set is classed as cell-based, rat. On the procedure: Total protein was isolated from H9c2 cells, primary mouse cardiomyocytes, RAW264.7 cells and heart tissue using 1X RIPA buffer containing phosphatase and proteinase inhibitors at 4 °C. After measurement of the concentration, the cell lysates were separated by sodium dodecyl sulphate polyacrylamide gel electrophoresis (SDS-PAGE) and transferred to polyvinylidene fluoride (PVDF) membranes. The membranes were blocked in Tris-buffered saline-Tween 20 (TBST) buffer with 5% BSA for 1 h and incubated with primary antibodies (1:1000 dilution) overnight at 4 °C. After the membranes was washed by TBST buffer for three times, they were incubated with horseradish peroxidase (HRP)-conjugated secondary mouse or rabbit antibodies (1:3,000 dilution) at room temperature (RT) for 1.5 h and then detected by SuperEnhanced chemiluminescence (ECL) reaction reagents (GBCBIO Technologies Inc., Guangzhou, Guangdong, China). […] After letting the membranes stand for 1-2 min, the bands of the respective proteins were detected with the exposure time of 10 ~60 s.
According to previous experiences, Nrf2 nucleus translocation could be detected at 6 h. […] After several washes with PBS, the bound antibodies were detected by Alexa Fluor 594-conjugated goat anti-rabbit or Alexa Fluor 488-conjugated goat anti-mouse IgG secondary antibody at RT for 1 h. […]

The subject of data set [2] is T1, Keap1.
T1 construct: endogenous in cells; host or cells: RAW264.7
Put plainly: Pull-down with PBA-Sepharose 4B beads, cell lysate. The data set is classed as binding. The following applies: 4 °C, immunoblot, Sepharose 4B beads only as negative control. On the procedure:
PBA-Sepharose 4B beads were created by dissolving PBA in coupling buffer (100 mM NaHCO3, pH 8.3, 0.5 M NaCl). After washing with 1 mM HCl medium, Sepharose 4B beads were mixed with PBA coupling buffer and slowly rotated overnight at 4 °C. Excess PBA was washed away with coupling buffer and any remaining active groups were blocked with 0.1 M Tris-HCl buffer (pH 8.0) for 2 h. The medium was then washed with 0.1 M acetate buffer (pH 4.0) containing 0.5 M NaCl followed by a wash with 0.1 M Tris-HCl (pH 8.0) that also contained 0.5 M NaCl. PBA-Sepharose 4B beads were ready for use in the pull-down assay. The RAW264.7 cellular supernatant fraction (600 µg) was incubated with either PBA-Sepharose 4B or Sepharose 4B as a negative control in reaction buffer (50 mM Tris-HCl, pH 7.5, 5 mM EDTA, 150 mM NaCl, 1 mM DTT, 0.01% NP-40, 2 µg/mL of BSA, 0.02 mM PMSF, 1 × protease inhibitor cocktail). After incubation with gentle rocking overnight at 4 °C, the beads were washed five times with wash buffer (50 mM Tris-HCl, pH 7.5, 5 mM EDTA, 150 mM NaCl, 1 mM DTT, 0.01% NP-40, 0.02 mM PMSF) and proteins bound to the beads were analyzed by immunoblotting assay with a Keap1 antibody.
(A western blot detects proteins with antibodies after separation by electrophoresis.)

The test system of data set [3] is H9c2 cells. The data set is described as follows: MTT cytotoxicity, H9c2. It is filed as cell-based, rat. The following applies: under 240 μM, 48 h. On the procedure: Cell viability was determined by MTT assays. PBA was prepared to a stock solution dissolved in dimethyl sulfoxide (DMSO). RAW264.7, H9c2 cells, primary mouse cardiomyocytes were treated with different doses of PBA, and DMSO only as control for 48 h for the toxicity. In addition, H9c2 cells or primary mouse cardiomyocytes were treated with the indicated doses of PBA, diazoxide as positive control, DMSO only as control, then cultured with or without OGD/R treatment. At the end of the experiments, MTT was added into each well at the concentration of 0.5 mg/ml, and incubated at 37 °C for 4 h. After removal of the supernatant, 150 μL of DMSO was added to solubilize the formazan products. And the solution was measured at the absorbance of 490 nm by a spectrophotometer (Thermo Fisher Scientific, MA, USA). The results of the MTT assay in all groups were normalized to the control group with DMSO only treatment.

Data set [4] concerns primary mouse cardiomyocytes transfected with C77S and C434S-Keap1. The data set is described as follows: OGD/R viability in Keap1-mutant-transfected primary cardiomyocytes. The data set is classed as cell-based. The following applies: Cys77S and Cys434S-Keap1 mutant vectors, MTT. On the procedure:
Figure 6 PBA suppresses Keap1-mediated ubiquitination of Nrf2 by disrupting the interaction between Cul3 and Keap1. (A and B) PBA suppressed Nrf2 ubiquitination in a Keap1-Cys77 and C434-dependent manner. First, 293T cells were transfected with WT-Keap1 or C77S and C434S-Keap1, Myc-Nrf2, and Ub plasmids for 24 h and treated with 30 μM PBA. The cell lysates were immunoprecipitated using anti-Myc beads, and the ubiquitination level was evaluated using the anti-Ub antibody. (C and D) PBA induced the dissociation of the Nrf2-Keap1 complex. Then, 293T cells were cotransfected with WT-Keap1 and Flag-Nrf2 plasmids for 24 h and treated with 30 μM PBA for 12 h. The cell lysates were immunoprecipitated with the anti-Flag antibody, and the level of Nrf2 was assessed using the anti-Nrf2 antibody. (E and F) PBA disrupted the interaction between Cul3 and Keap1. […] The cell lysates were immunoprecipitated with the anti-Flag antibody, and the level of Cul3 was measured using the anti-Cul3 antibody. #p < 0.05, ##p < 0.01, ###p < 0.001, the control vs DMSO; *p < 0.05,**p < 0.01, ***p < 0.001, PBA or tBHQ vs DMSO. […] Cell viability was measured by MTT assays. #p < 0.05, ###p < 0.001, the control vs OGD/R; **p < 0.01, ***p < 0.001, OGD/R+PBA vs OGD/R.
Cell viability was determined by MTT assays. […] And the solution was measured at the absorbance of 490 nm by a spectrophotometer (Thermo Fisher Scientific, MA, USA). […]

Turning to `C=C(COC(=O)C=Cc1ccc(O)c(O)c1)C(O)COC1OC(CO)C(O)C(O)C1O` (stereo not shown) [PBA, pubescenoside A], in data set [1], the “Nrf2 translocation into nucleus” value was “significantly promoted”. Moreover, the “binding of Keap1 to PBA-Sepharose 4B beads (pull-down)” value in data set [2] is reported as “could bind”. For the same compound, in data set [3], the “cell toxicity (MTT)” value is recorded as “did not exhibit any cell toxicity”. In data set [4], the “protective effect against OGD/R injury with mutant Keap1” value was “blocked the protective effect”.
